Measured values: patent US6982271B1, “Tropane analogs” (Georgetown University, priority 1999, dated 2006)

What was measured:
Type in all cases: cell-based
[1] = biological target: dopamine transporter (DAT) (Homo sapiens, UniProt Q01959); assay: [3H]DA uptake inhibition at the dopamine transporter; conditions: read-out: [3H]DA uptake, Ki ± SE
From the text: (§1) These novel ligands have been tested for their binding affinity at the DAT as well as for the inhibition of reuptake of NE, 5-HT, and DA at their specific transporters.

[2] = biological target: norepinephrine transporter (NET) (Homo sapiens, UniProt P23975); assay: [3H]NE uptake inhibition at the norepinephrine transporter; conditions: for NE/5-HT ratio / NE/DA ratio: ratio of uptake Ki; for NE/5-HT ratio: NE vs 5-HT; for NE/DA ratio: NE vs DA; for Ki: read-out: [3H]NE uptake, Ki ± SE
From the text: as §1

[3] = biological target: serotonin transporter (5-HTT) (Homo sapiens, UniProt P31645); assay: [3H]5-HT uptake inhibition at the serotonin transporter; conditions: for 5-HT/DA ratio: ratio of uptake Ki, 5-HT vs DA; for Ki: read-out: [3H]5-HT uptake, Ki ± SE; for higher activity at 5-HTT vs. DAT: selectivity 5-HTT vs DAT
From the text: as §1

norepinephrine transporter (NET), sequence (P23975 whole entry, species assumed): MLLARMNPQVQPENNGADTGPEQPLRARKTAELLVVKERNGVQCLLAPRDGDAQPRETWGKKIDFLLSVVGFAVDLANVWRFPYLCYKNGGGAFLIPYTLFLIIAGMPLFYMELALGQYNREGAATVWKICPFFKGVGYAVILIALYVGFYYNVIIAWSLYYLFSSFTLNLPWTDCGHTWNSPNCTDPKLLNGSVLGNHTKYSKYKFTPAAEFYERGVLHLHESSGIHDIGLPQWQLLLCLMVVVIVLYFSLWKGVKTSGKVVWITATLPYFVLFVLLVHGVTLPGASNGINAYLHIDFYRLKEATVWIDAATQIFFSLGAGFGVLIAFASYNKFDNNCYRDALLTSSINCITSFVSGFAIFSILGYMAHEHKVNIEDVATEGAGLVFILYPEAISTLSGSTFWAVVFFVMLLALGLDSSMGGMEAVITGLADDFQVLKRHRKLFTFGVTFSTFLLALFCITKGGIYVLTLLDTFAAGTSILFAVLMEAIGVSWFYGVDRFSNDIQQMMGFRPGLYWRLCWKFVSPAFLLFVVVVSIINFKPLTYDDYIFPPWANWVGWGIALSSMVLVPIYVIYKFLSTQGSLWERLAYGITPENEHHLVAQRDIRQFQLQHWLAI
dopamine transporter (DAT), sequence (Q01959 whole entry, species assumed): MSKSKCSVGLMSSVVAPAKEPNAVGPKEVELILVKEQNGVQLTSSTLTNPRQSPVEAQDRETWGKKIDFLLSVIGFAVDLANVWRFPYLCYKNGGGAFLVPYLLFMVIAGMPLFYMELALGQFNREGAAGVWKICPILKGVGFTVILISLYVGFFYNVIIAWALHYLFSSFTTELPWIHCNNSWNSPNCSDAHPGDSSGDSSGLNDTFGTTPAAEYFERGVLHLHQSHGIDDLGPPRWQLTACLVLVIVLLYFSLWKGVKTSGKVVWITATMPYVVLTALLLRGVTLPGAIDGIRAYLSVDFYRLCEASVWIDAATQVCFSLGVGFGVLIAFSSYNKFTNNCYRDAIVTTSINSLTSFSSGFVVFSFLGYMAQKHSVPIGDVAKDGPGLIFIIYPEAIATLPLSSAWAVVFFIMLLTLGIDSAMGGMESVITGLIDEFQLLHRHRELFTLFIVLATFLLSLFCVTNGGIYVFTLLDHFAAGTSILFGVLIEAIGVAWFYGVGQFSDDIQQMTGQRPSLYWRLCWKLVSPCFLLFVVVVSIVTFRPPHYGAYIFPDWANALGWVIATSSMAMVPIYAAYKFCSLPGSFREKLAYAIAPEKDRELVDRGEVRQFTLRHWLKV
serotonin transporter (5-HTT), sequence (P31645 whole entry, species assumed): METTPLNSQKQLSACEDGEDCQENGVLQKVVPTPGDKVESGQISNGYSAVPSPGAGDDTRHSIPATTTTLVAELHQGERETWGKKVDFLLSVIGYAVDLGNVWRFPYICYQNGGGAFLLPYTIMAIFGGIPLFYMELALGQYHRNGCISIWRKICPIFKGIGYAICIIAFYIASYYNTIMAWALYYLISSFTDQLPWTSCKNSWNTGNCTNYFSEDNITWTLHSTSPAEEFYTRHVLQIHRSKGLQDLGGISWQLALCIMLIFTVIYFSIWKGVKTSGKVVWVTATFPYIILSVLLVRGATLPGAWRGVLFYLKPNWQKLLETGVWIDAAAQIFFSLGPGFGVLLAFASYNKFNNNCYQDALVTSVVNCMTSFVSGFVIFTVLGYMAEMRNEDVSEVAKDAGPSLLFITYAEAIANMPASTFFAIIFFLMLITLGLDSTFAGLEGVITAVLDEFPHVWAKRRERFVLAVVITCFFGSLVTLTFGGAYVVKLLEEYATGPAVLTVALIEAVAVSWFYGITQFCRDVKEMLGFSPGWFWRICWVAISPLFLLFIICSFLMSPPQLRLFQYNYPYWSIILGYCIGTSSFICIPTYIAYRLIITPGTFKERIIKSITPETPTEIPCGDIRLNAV

Row | SMILES | Ki [1] | activity at all three transporters ([2]; NET, 5-HTT and DAT) | NE/5-HT ratio [2] | NE/DA ratio [2] | Ki [2] | 5-HT/DA ratio [3] | Ki [3] | Ki at the 5-HTT higher than at the NET ([2]; selectivity NET vs 5-HTT) | Ki at the DAT higher than at the NET ([2]; selectivity NET vs DAT) | decrease of norepinephrine reuptake activity vs. 5a ([2]; fluoro substituent, 5d vs. 5a) | higher activity at 5-HTT vs. DAT [3] | higher activity at 5-HTT vs. the NET ([3]; selectivity 5-HTT vs NET)
1 | COC(=O)C1C2CC3CCC1N3CC2=Cc1ccccc1 (single isomer, unassigned) [compound 6] | 5070 ± 310 nM | only weakly active | 0.2 | 0.3 | 1530 ± 150 nM | 1.48 | 7480 ± 250 nM | – | – | – | – | –
2 | COC(=O)C1C2CC3CCC1N3CC2=Cc1ccccc1 (single isomer, unassigned) [5a] | 481 ± 10.8 nM | – | 0.05 | 0.11 | 53 ± 16.1 nM | 2.36 | 1140 ± 70 nM | 20 fold | 9 fold | – | – | –
3 | COC(=O)C1C2CC3CCC1N3CC2=Cc1ccoc1 (stereo not shown) [5g] | 1880 ± 10 nM | – | 0.33 | 0.09 | 164 ± 2.8 nM | 0.26 | 498 ± 65.5 nM | – | – | – | – | –
4 | COC(=O)C1C2CC3CCC1N3CC2=Cc1ccco1 (stereo not shown) [5f] | 2020 ± 190 nM | – | 0.03 | 0.05 | 111 ± 12.7 nM | 1.82 | 3680 ± 190 nM | – | – | – | – | –
5 | COC(=O)C1C2CC3CCC1N3CC2=Cc1ccc(F)cc1 (stereo not shown) [5d] | 6620 ± 460 nM | – | 1.74 | 0.09 | 584 ± 163 nM | 0.05 | 335 ± 45.5 nM | – | – | about 10 factor | – | –
6 | COC(=O)C1C2CC3CCC1N3CC2=Cc1ccc(OC)cc1 (stereo not shown) [5c] | 3130 ± 160 nM | – | 3.37 | 0.06 | 187 ± 4.6 nM | 0.02 | 55.7 ± 3.8 nM | – | – | – | 50 fold | –
7 | COC(=O)C1C2CC3CCC1N3CC2=Cc1ccc(Cl)c(Cl)c1 (stereo not shown) [5b] | 1920 ± 260 nM | – | 50.6 | 0.52 | 1000 ± 280 nM | 0.01 | 19.8 ± 0.5 nM | – | – | – | about 100 fold | about 50 fold
8 | COC(=O)C1C2CC3CCC1N3CC2=Cc1cccc2ccccc12 (stereo not shown) [5e] | 9720 ± 700 nM | – | 44.5 | 0.55 | 5370 ± 580 nM | 0.01 | 121 ± 3.4 nM | – | – | – | – | –
